# Source: ChEMBL document CHEMBL4888484, “Replenishing the malaria drug discovery pipeline: Screening and hit evaluation of the MMV Hit Generation Library 1 (HGL1) against asexual blood stage Plasmodium falciparum ,using a nano luciferase reporter read-out” (2022)
# Legend:
# Plasmodium falciparum [1] = assay: Hit confirmation in dose-response curve in NF54 nanoGlo assay, at 72h; format: functional, organism-based, Erythrocyte; parameters: timepoint 72 hour
# Plasmodium falciparum [2] = assay: Hit confirmation in dose-response curve in NF54 pLDH assay, at 72h; format: functional, organism-based; parameters: timepoint 72 hour; conditions: NF54, Erythrocyte
# Plasmodium falciparum [3] = assay: Hit confirmation in dose-response curve in Dd2 pLDH assay, at 72h; format: functional, organism-based; parameters: timepoint 72 hour; conditions: Dd2, Erythrocyte
# Plasmodium falciparum [4] = assay: Hit confirmation in dose-response curve in NF54 nanoGlo assay, at 12h; format: functional, organism-based, Erythrocyte; parameters: timepoint 12 hour
# [5] = Hit confirmation in dose-response curve in HepG2 cytotoxicity assay, at 72h; format: toxicity, cell-based; parameters: timepoint 72 hour; conditions: human, HepG2 cells
# [6] = Plasmodium falciparum, NF54, Erythrocyte, 72 h
# [7] = Plasmodium falciparum, NF54, Erythrocyte, 12 h
IC50 (Plasmodium falciparum [1]; [6]) [µM],IC50 (Plasmodium falciparum [2]) [µM],IC50 (Plasmodium falciparum [3]) [µM],IC50 (Plasmodium falciparum [4]; [7]) [µM],IC50 (Plasmodium falciparum [1]; erythrocyte) [µM],IC50 (Plasmodium falciparum [4]; erythrocyte) [µM],SMILES,IC50 at 72 h [5] [µM]
> 10,> 10,> 10,> 10,–,–,O=C(c1cccc(C(=O)N2CCN(C(c3ccccc3)c3ccccc3)CC2)c1)N1CCN(C(c2ccccc2)c2ccccc2)CC1,> 10
2.45,5.01,4.17,4.9,–,–,CC(N=C1NC(=NC(C)c2ccccc2)c2ccccc21)c1ccccc1 (centres undefined),> 10
1.7,2.19,1.48,> 10,–,–,CCc1c(C)nn2c(c1C)c(-c1ccccc1)[n+]1c(C)c(CC)c(C)nc21,> 10
1.62,2.82,2.63,3.63,–,–,CCOc1cc(-c2cc(-c3ccccc3O)nc3ccc4ccccc4c23)cc(Br)c1O,> 10
1.74,5.5,4.27,> 10,–,–,Cc1ccccc1Cn1cnc2c1c(=O)n(C1CCCCC1)c(=O)n2-c1ccccc1Cl,> 10
2.34,10,> 10,3.24,–,–,Cc1ccc(S(=O)(=O)Nc2cc3nc4ccccc4nc3n2CCc2ccccc2)cc1,> 10
1.45,> 10,> 10,0.457,–,–,COc1ccc(CCNC(=O)c2cc3c(=O)[nH]c(C)cn3n2)cc1OC,> 10
3.16,> 10,> 10,11,–,–,COc1ccc(C(=O)Nc2ccc3c(c2)C(=O)Nc2cccnc2O3)cc1OC,> 10
1.82,3.72,3.09,2.82,–,–,O=C(c1ccccc1)c1ccc(O)c(CN2CCCN(c3ccc(C(F)(F)F)cn3)CC2)c1O,> 10
2.04,3.47,3.47,4.79,–,–,CCc1cc(N2C[C@@H]3NC(=O)CN(C)Cc4ccc(OC)c(c4)Oc4cccc(c4)CO[C@H]3C2)nc(N(C)C)n1,> 10
2.82,1.82,4.68,> 10,–,–,O=C(c1cc(-c2ccco2)n[nH]1)N1CCC(N2CCC(Oc3ccccc3F)CC2)CC1,> 10
1.58,2,2.04,3.55,–,–,N[C@H]1C[C@H](c2cc(NCCCc3cccnc3)nc(C3CC3)n2)C1,> 10
1.82,6.31,3.89,> 10,–,–,COc1ccc(S(=O)(=O)N2CCC(c3cc(N)on3)CC2)cc1Cl,> 10
2.63,8.71,3.8,3.8,–,–,CCc1ccc(C2=C[C@@H](c3cccc(OC)c3)n3ncc(C(=O)Nc4ccc(C)cc4)c3N2)cc1,> 10
1.29,2.45,2.29,2.45,–,–,FC(F)(F)C1CN(c2nc(-c3ccccn3)nc3c2CCC3)C1,> 10
> 10,> 10,> 10,> 10,–,–,CCn1cc(C#N)c(=O)c2cc(F)c(N3CCN(Cc4ccccc4)CC3)cc21,> 10
7.76,> 10,> 10,2.95,–,–,O=C(c1cc2ccccc2[nH]1)N1CCc2sc(Cl)cc2C1,> 10
3.55,> 10,7.59,5.75,–,–,COc1ccc(-n2ncc(Oc3cccc(C)c3)c(Nc3cccc(C(=O)NCc4ccc(F)cc4)c3)c2=O)cc1,> 10
2.63,3.55,5.5,4.68,–,–,O=C(Nc1ccccc1)Nc1cnc(-n2ccnc2)nc1,> 10
1.7,4.37,4.07,2.75,–,–,Cc1ccc(S(=O)(=O)c2c(NS(=O)(=O)c3ccc(F)cc3)n(CCc3ccccc3)c3nc4ccccc4nc23)cc1,> 10
6.61,> 10,> 10,3.89,–,–,COc1ccc(-n2ncc3c(N)c4c(nc32)CCCC4=O)cc1,> 10
2.82,11.5,9.77,6.92,–,–,Cc1nsc2ncc(C(=O)N3CCC(C)CC3)c(N3CCC(C(=O)Nc4cc(F)ccc4F)CC3)c12,> 10
0.676,> 10,> 10,0.794,1.17,0.631,COc1cccc(-c2nc(C)c(C(=O)Nc3n[nH]c(CC(C)C)n3)s2)c1,> 10
1.66,3.72,5.5,4.57,–,–,Cc1cccc(CN2CCC[C@H](C(=O)c3ccc4c5c(cccc35)CC4)C2)n1,> 10

IC50 (Plasmodium falciparum [1]; [6]) [µM],IC50 (Plasmodium falciparum [2]) [µM],IC50 (Plasmodium falciparum [3]) [µM],IC50 (Plasmodium falciparum [4]; [7]) [µM],IC50 (Plasmodium falciparum [1]; erythrocyte) [µM],IC50 (Plasmodium falciparum [4]; erythrocyte) [µM],SMILES,IC50 at 72 h [5] [µM]
1.1,1.15,1.17,7.08,–,–,COc1ccc(CN2CC[C@@H]3C(=O)NCCCCCCN(Cc4ccncc4)[C@@H]3C2)cc1Cn1ccnc1,> 10
1.66,4.27,3.09,> 10,–,–,Cc1ccc(C(=O)N(Cc2cccc(F)c2)c2ccc(CC(=O)N[C@@H](C)c3ccccc3)cc2)cc1,> 10
1.45,> 10,> 10,0.676,–,–,COc1ccc(CCc2nc(NC(=O)c3nc(C)sc3C)n[nH]2)cc1OC,> 10
3.02,10,9.55,> 10,–,–,COc1ccccc1-n1c(=O)n(C2CCCC2)c(=O)c2c1ncn2Cc1ccccc1Cl,> 10
3.16,6.46,3.47,7.24,–,–,O[C@@H](CNCc1ccsc1C(F)(F)F)c1cc(Cl)c2c(c1)OCCO2,> 10
2,1,2.69,3.16,–,–,Cc1nnc(-c2ccc3ccn(CC(=O)Nc4ccc(F)c(Cl)c4)c3c2)o1,> 10
1.15,4.17,2.29,4.79,–,–,CCc1ccc(NC(=O)[C@H](C)N2CCC(NS(=O)(=O)c3cccs3)CC2)cc1,> 10
2.04,6.92,4.47,3.31,–,–,O=C(Nc1ccc(Cl)c(Cl)c1)Nc1ccc(Cl)cc1NC(=O)Nc1ccc(Cl)c(Cl)c1,> 10
> 10,3.47,2.88,> 10,–,–,C[C@H]1[C@@H]2[C@@H](O)C([C@H](C)C(=O)NC3CCCCC3)CC[C@@]2(C)CC[C@@H]1NC(=O)CC(C)(C)C (some centres undefined),> 10
1.58,5.13,2.75,3.09,–,–,Oc1ccc2ncccc2c1[C@@H](Nc1ccccn1)c1cccc(Br)c1,> 10
1.38,0.347,1.45,2.04,–,–,N#Cc1nc2c(C#N)c(N)n(CCc3ccccc3)c2nc1C#N,> 10
5.01,> 10,> 10,7.94,–,–,CCOC(=O)C1CCC(CN(Cc2ccc(OC)cc2)S(=O)(=O)c2cc(C(=O)Nc3ccc(OCC)cc3)ccc2F)CC1 (centres undefined),> 10
2,3.47,2.95,3.72,–,–,CN(C)CCN(C)c1ccc(Br)cc1NCc1cncn1C,> 10
1.95,3.02,2.75,> 10,–,–,O=S(=O)(c1cccc(Cl)c1)N1CCc2nc(N3CCCCC3)nc(Oc3ccccc3)c2C1,> 10
2.24,3.31,5.37,6.46,–,–,Cc1cc(N)nc(Nc2ccc(Nc3ccccc3)cc2)n1,> 10
2.34,3.98,2.63,4.37,–,–,CC1(C)Cc2nc3ccccc3c(NCc3ccccc3)c2[C@@H](O)C1,> 10
2.04,8.32,6.31,2.4,–,–,NC(=O)c1ccccc1NC(=O)C1CCN(c2cc(C3CC3)ncn2)CC1,> 10
1.48,2.29,1.35,> 10,–,–,Cc1ccc2c(c1)c1c(n2S(=O)(=O)c2ccc(C(C)(C)C)cc2)CCCN(C)C1,> 10
1.66,1.91,1.38,4.68,–,–,CN1CCC(N2CCN(Cc3ccc4cc(O)ccc4c3)CC2)CC1,> 10
0.257,0.331,0.234,1.74,–,–,Cn1c(Cc2n[n+]3c(-c4ccccc4)cc(-c4ccccc4)nc3n2C)n[n+]2c(-c3ccccc3)cc(-c3ccccc3)nc12,4.79
2.88,7.08,3.24,> 10,–,–,CCCOc1ccc(Nc2cc(C)nc3ccc(Cl)cc23)cc1,> 10
2.88,4.47,2.95,6.03,–,–,COc1cc(CNCCCN2CCOCC2)ccc1OCc1ccc(Cl)cc1,> 10
1.86,3.09,2.82,2.45,–,–,Cc1cccc2ncnc(N(C)[C@@H](C)Cc3ccc(O)cc3)c12,> 10
–,–,–,3.16,–,–,NC(=O)C1CCN(CCC(=O)N2CCc3cc4ccc3[C@@H]2c2cccc(c2)OCCCNC(=O)c2cc(ccc2O)O4)CC1,> 10
